From the supplement of paper PMC12494721

Tests used:
Conditions in all cases: incubation time: 27 h, anaerobic, 37 °C
[1] = tested on: Clostridium sporogenes DSM 1664; assay: growth (OD595) fold change vs plate DMSO controls (fold change (ratio)); higher = more growth
Escherichia coli IAI1 [2] = assay: as above
[3] = tested on: Klebsiella aerogenes DSM 30053; assay: as above
[4] = tested on: Ruminococcus gnavus DSM 108212; assay: as above
[5] = tested on: Klebsiella aerogenes DSM 30053; assay: fold change of Histamine concentration vs plate DMSO controls (fold change (ratio)); higher = more amine produced
Protocol: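 Dose-response follow-up: bacteria (E. coli IAI1, K. aerogenes DSM 30053, C. sporogenes DSM 1664, R. gnavus DSM 108212) were grown anaerobically in mGAM at 37 °C for 27 h with compound at 0.6125-20 µM. Amines were measured in the whole culture by targeted LC-MS/MS. Metabolite fold change and OD595 fold change are relative to plate DMSO controls; n=2 biological replicates. OD fold changes are not clipped, so slightly negative values mean no growth.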

Escherichia coli IAI1 [6] = assay: fold change of Putrescine concentration vs plate DMSO controls (fold change (ratio)); higher = more amine produced
[7] = tested on: Klebsiella aerogenes DSM 30053; assay: as above
[8] = tested on: Clostridium sporogenes DSM 1664; assay: fold change of Tryptamine concentration vs plate DMSO controls (fold change (ratio)); higher = more amine produced
[9] = tested on: Ruminococcus gnavus DSM 108212; assay: as above
Escherichia coli IAI1 [10] = assay: fold change of Cadaverine concentration vs plate DMSO controls (fold change (ratio)); higher = more amine produced
[11] = tested on: Klebsiella aerogenes DSM 30053; assay: as above
[12] = tested on: Ruminococcus gnavus DSM 108212; assay: fold change of 2-Phenylethylamine concentration vs plate DMSO controls (fold change (ratio)); higher = more amine produced

CCn1cc(C(=O)O)c(=O)c2cc(F)c(N3CCNCC3)nc21 [Enoxacin]
Conditions | fold change of 2-Phenylethylamine concentration | fold change of Cadaverine concentration | fold change of Histamine concentration | fold change of Putrescine concentration | fold change of Tryptamine concentration | growth
Escherichia coli IAI1 [2], 0.6125 µM | – | – | – | – | – | 0.893
Escherichia coli IAI1 [2], 1.25 µM | – | – | – | – | – | -0.0647
Escherichia coli IAI1 [2], 2.5 µM | – | – | – | – | – | -0.041
Escherichia coli IAI1 [2], 5 µM | – | – | – | – | – | 0.063
Escherichia coli IAI1 [2], 10 µM | – | – | – | – | – | 0.0275
Escherichia coli IAI1 [2], 20 µM | – | – | – | – | – | -0.0283
Escherichia coli IAI1 [6], 0.6125 µM | – | – | – | 0.829 | – | –
Escherichia coli IAI1 [6], 1.25 µM | – | – | – | 0.362 | – | –
Escherichia coli IAI1 [6], 2.5 µM | – | – | – | 0.557 | – | –
Escherichia coli IAI1 [6], 5 µM | – | – | – | 0.832 | – | –
Escherichia coli IAI1 [6], 10 µM | – | – | – | 0.916 | – | –
Escherichia coli IAI1 [6], 20 µM | – | – | – | 0.993 | – | –
Escherichia coli IAI1 [10], 0.6125 µM | – | 1.43 | – | – | – | –
Escherichia coli IAI1 [10], 1.25 µM | – | 1.6 | – | – | – | –
Escherichia coli IAI1 [10], 2.5 µM | – | 1.14 | – | – | – | –
Escherichia coli IAI1 [10], 5 µM | – | 0.433 | – | – | – | –
Escherichia coli IAI1 [10], 10 µM | – | 0.292 | – | – | – | –
Escherichia coli IAI1 [10], 20 µM | – | 0.278 | – | – | – | –
[1], 0.6125 µM | – | – | – | – | – | 1.15
[1], 1.25 µM | – | – | – | – | – | 1.19
[1], 2.5 µM | – | – | – | – | – | 1.06
[1], 5 µM | – | – | – | – | – | 0.904
[1], 10 µM | – | – | – | – | – | 0.245
[1], 20 µM | – | – | – | – | – | 0.00474
[3], 0.6125 µM | – | – | – | – | – | 0.845
[3], 1.25 µM | – | – | – | – | – | 1.25
[3], 2.5 µM | – | – | – | – | – | 0.554
[3], 5 µM | – | – | – | – | – | 0.373
[3], 10 µM | – | – | – | – | – | 0.469
[3], 20 µM | – | – | – | – | – | 0.328
[4], 0.6125 µM | – | – | – | – | – | 0.917
[4], 1.25 µM | – | – | – | – | – | 1.07
[4], 2.5 µM | – | – | – | – | – | 0.725
[4], 5 µM | – | – | – | – | – | 0.638
[4], 10 µM | – | – | – | – | – | 0.638
[4], 20 µM | – | – | – | – | – | 0.488
[5], 0.6125 µM | – | – | 0.971 | – | – | –
[5], 1.25 µM | – | – | 1.17 | – | – | –
[5], 2.5 µM | – | – | 1.18 | – | – | –
[5], 5 µM | – | – | 0.54 | – | – | –
[5], 10 µM | – | – | 0.252 | – | – | –
[5], 20 µM | – | – | 0.329 | – | – | –
[7], 0.6125 µM | – | – | – | 1.03 | – | –
[7], 1.25 µM | – | – | – | 1.06 | – | –
[7], 2.5 µM | – | – | – | 1.2 | – | –
[7], 5 µM | – | – | – | 1.27 | – | –
[7], 10 µM | – | – | – | 1.3 | – | –
[7], 20 µM | – | – | – | 1.34 | – | –
[8], 0.6125 µM | – | – | – | – | 0.988 | –
[8], 1.25 µM | – | – | – | – | 0.965 | –
[8], 2.5 µM | – | – | – | – | 0.972 | –
[8], 5 µM | – | – | – | – | 0.712 | –
[8], 10 µM | – | – | – | – | 0.133 | –
[8], 20 µM | – | – | – | – | 0.0376 | –
[9], 0.6125 µM | – | – | – | – | 0.907 | –
[9], 1.25 µM | – | – | – | – | 1.03 | –
[9], 2.5 µM | – | – | – | – | 1.98 | –
[9], 5 µM | – | – | – | – | 1.5 | –
[9], 10 µM | – | – | – | – | 1.3 | –
[9], 20 µM | – | – | – | – | 1.47 | –
[11], 0.6125 µM | – | 0.977 | – | – | – | –
[11], 1.25 µM | – | 0.984 | – | – | – | –
[11], 2.5 µM | – | 0.985 | – | – | – | –
[11], 5 µM | – | 1.01 | – | – | – | –
[11], 10 µM | – | 0.999 | – | – | – | –
[11], 20 µM | – | 0.994 | – | – | – | –
[12], 0.6125 µM | 0.788 | – | – | – | – | –
[12], 1.25 µM | 1.01 | – | – | – | – | –
[12], 2.5 µM | 1.5 | – | – | – | – | –
[12], 5 µM | 1.16 | – | – | – | – | –
[12], 10 µM | 1.04 | – | – | – | – | –
[12], 20 µM | 1.15 | – | – | – | – | –

COc1c(N2CCNC(C)C2)c(F)cc2c(=O)c(C(=O)O)cn(C3CC3)c12 (stereo not given) [Gatifloxacin]
Conditions | fold change of 2-Phenylethylamine concentration, [12] | fold change of Cadaverine concentration, [11] | fold change of Histamine concentration, [5] | fold change of Putrescine concentration, [7] | fold change of Tryptamine concentration, [9] | growth, [3] | growth, [4]
0.6125 µM | 1.35 | 0.983 | 1.35 | 1.03 | 1.31 | 0.993 | 0.932
1.25 µM | 1.33 | 1.03 | 0.852 | 1.2 | 1.5 | 0.605 | 0.65
2.5 µM | 1.67 | 1.02 | 0.158 | 1.26 | 2.2 | 0.302 | 0.553
5 µM | 2.18 | 0.999 | 0.193 | 1.35 | 2.87 | 0.348 | 0.484
10 µM | 1.22 | 1 | 0.284 | 1.4 | 1.85 | 0.373 | 0.3
20 µM | 0.23 | 0.997 | 0.4 | 1.24 | 0.434 | 0.242 | 0.107

C[C@@H](O)[C@H]1C(=O)N2C(C(=O)O)=C(S[C@@H]3CN[C@H](C(=O)N(C)C)C3)[C@H](C)[C@H]12 [Meropenem]
Conditions | fold change of 2-Phenylethylamine concentration, [12] | fold change of Cadaverine concentration, [11] | fold change of Histamine concentration, [5] | fold change of Putrescine concentration, [7] | fold change of Tryptamine concentration, [9] | growth, [3] | growth, [4]
0.6125 µM | 0.912 | 0.982 | 0.953 | 1 | 1.11 | 0.844 | 1.13
1.25 µM | 0.801 | 1.01 | 0.643 | 1.06 | 0.93 | 0.992 | 1.07
2.5 µM | 0.578 | 1 | 0.612 | 0.976 | 0.801 | 0.894 | 1.63
5 µM | 0.185 | 1.06 | 0.462 | 1.01 | 0.259 | 1.4 | 1.88
10 µM | 0.162 | 1.13 | 0.289 | 0.879 | 0.217 | 0.935 | 0.41
20 µM | 0.162 | 1.18 | 0.227 | 0.667 | 0.2 | 0.363 | 0.365

CN1CCN(c2c(F)cc3c(=O)c(C(=O)O)cn4c3c2SCC4)CC1 [Rufloxacin]
Conditions | fold change of 2-Phenylethylamine concentration, [12] | fold change of Cadaverine concentration, [11] | fold change of Histamine concentration, [5] | fold change of Putrescine concentration, [7] | fold change of Tryptamine concentration, [8] | fold change of Tryptamine concentration, [9] | growth, [1] | growth, [3] | growth, [4]
0.6125 µM | 0.871 | 0.967 | 1.1 | 0.99 | 1 | 0.989 | 1.09 | 0.848 | 1.07
1.25 µM | 1.12 | 0.979 | 1.03 | 0.992 | 0.994 | 1.18 | 0.879 | 0.939 | 0.974
2.5 µM | 2.04 | 0.981 | 1.96 | 1.05 | 0.972 | 2.02 | 0.898 | 0.636 | 0.91
5 µM | 1.33 | 1.03 | 0.834 | 1.12 | 0.931 | 1.51 | 1.09 | 0.425 | 0.61
10 µM | 1.22 | 1.09 | 0.211 | 1.19 | 0.674 | 1.24 | 0.742 | 0.466 | 0.593
20 µM | 1.18 | 1.12 | 0.22 | 1.19 | 0.0448 | 1.16 | 0.0686 | 0.37 | 0.484
